Reference: the NIST ThermoML archive (doi:10.1016/j.jct.2012.09.012)
± gives the expanded uncertainty stated by the source.

Experiment: molar heat capacity at constant pressure; xn = mol fraction of the nth substance listed
Details: 101 kPa, Liquid, Small sample (50 mg) DSC

Structure (SMILES): CC1=CC[C@H]2C[C@@H]1C2(C)C [(S)-2-pinene] + C=C1CCC2CC1C2(C)C
- molar heat capacity at constant pressure (313.16 K, x1 = 0.1002): 249.31 ± 8.2 J/K/mol
- molar heat capacity at constant pressure (313.16 K, x1 = 0.2041): 250.67 ± 8.2 J/K/mol
- molar heat capacity at constant pressure (313.16 K, x1 = 0.2997): 250.67 ± 8.2 J/K/mol
- molar heat capacity at constant pressure (313.16 K, x1 = 0.3922): 252.03 ± 8.2 J/K/mol
- molar heat capacity at constant pressure (313.16 K, x1 = 0.5012): 250.67 ± 8.2 J/K/mol
- molar heat capacity at constant pressure (313.16 K, x1 = 0.5907): 249.31 ± 8.2 J/K/mol
- molar heat capacity at constant pressure (313.16 K, x1 = 0.7026): 250.67 ± 8.2 J/K/mol
- molar heat capacity at constant pressure (313.16 K, x1 = 0.7987): 252.03 ± 8.2 J/K/mol
- molar heat capacity at constant pressure (313.16 K, x1 = 0.9002): 253.4 ± 8.2 J/K/mol
- molar heat capacity at constant pressure (313.16 K, x1 = 1): 250.67 ± 8.2 J/K/mol
- molar heat capacity at constant pressure (318.16 K, x1 = 0.1002): 252.03 ± 8.2 J/K/mol
- molar heat capacity at constant pressure (318.16 K, x1 = 0.2041): 252.03 ± 8.2 J/K/mol
- molar heat capacity at constant pressure (318.16 K, x1 = 0.2997): 252.03 ± 8.2 J/K/mol
- molar heat capacity at constant pressure (318.16 K, x1 = 0.3922): 253.4 ± 8.2 J/K/mol
- molar heat capacity at constant pressure (318.16 K, x1 = 0.5012): 253.4 ± 8.2 J/K/mol
- molar heat capacity at constant pressure (318.16 K, x1 = 0.5907): 252.03 ± 8.2 J/K/mol
- molar heat capacity at constant pressure (318.16 K, x1 = 0.7026): 253.4 ± 8.2 J/K/mol
- molar heat capacity at constant pressure (318.16 K, x1 = 0.7987): 253.4 ± 8.2 J/K/mol
- molar heat capacity at constant pressure (318.16 K, x1 = 0.9002): 254.76 ± 8.2 J/K/mol
- molar heat capacity at constant pressure (318.16 K, x1 = 1): 252.03 ± 8.2 J/K/mol
- molar heat capacity at constant pressure (323.16 K, x1 = 0.1002): 256.12 ± 8.2 J/K/mol
- molar heat capacity at constant pressure (323.16 K, x1 = 0.2041): 254.76 ± 8.2 J/K/mol
- molar heat capacity at constant pressure (323.16 K, x1 = 0.2997): 256.12 ± 8.2 J/K/mol
- molar heat capacity at constant pressure (323.16 K, x1 = 0.3922): 256.12 ± 8.2 J/K/mol
- molar heat capacity at constant pressure (323.16 K, x1 = 0.5012): 254.76 ± 8.2 J/K/mol
- molar heat capacity at constant pressure (323.16 K, x1 = 0.5907): 254.76 ± 8.2 J/K/mol
- molar heat capacity at constant pressure (323.16 K, x1 = 0.7026): 256.12 ± 8.2 J/K/mol
- molar heat capacity at constant pressure (323.16 K, x1 = 0.7987): 254.76 ± 8.2 J/K/mol
- molar heat capacity at constant pressure (323.16 K, x1 = 0.9002): 256.12 ± 8.2 J/K/mol
- molar heat capacity at constant pressure (323.16 K, x1 = 1): 256.12 ± 8.2 J/K/mol
- molar heat capacity at constant pressure (328.22 K, x1 = 0.1002): 257.48 ± 8.2 J/K/mol
- molar heat capacity at constant pressure (328.22 K, x1 = 0.2041): 256.12 ± 8.2 J/K/mol
- molar heat capacity at constant pressure (328.22 K, x1 = 0.2997): 257.48 ± 8.2 J/K/mol
- molar heat capacity at constant pressure (328.22 K, x1 = 0.3922): 258.84 ± 8.2 J/K/mol
- molar heat capacity at constant pressure (328.22 K, x1 = 0.5012): 256.12 ± 8.2 J/K/mol
- molar heat capacity at constant pressure (328.22 K, x1 = 0.5907): 257.48 ± 8.2 J/K/mol
- molar heat capacity at constant pressure (328.22 K, x1 = 0.7026): 258.84 ± 8.2 J/K/mol
- molar heat capacity at constant pressure (328.22 K, x1 = 0.7987): 256.12 ± 8.2 J/K/mol
- molar heat capacity at constant pressure (328.22 K, x1 = 0.9002): 258.84 ± 8.2 J/K/mol
- molar heat capacity at constant pressure (328.22 K, x1 = 1): 257.48 ± 8.2 J/K/mol
- molar heat capacity at constant pressure (333.22 K, x1 = 0.1002): 260.21 ± 8.2 J/K/mol
- molar heat capacity at constant pressure (333.22 K, x1 = 0.2041): 258.84 ± 8.2 J/K/mol
- molar heat capacity at constant pressure (333.22 K, x1 = 0.2997): 258.84 ± 8.2 J/K/mol
- molar heat capacity at constant pressure (333.22 K, x1 = 0.3922): 260.21 ± 8.2 J/K/mol
- molar heat capacity at constant pressure (333.22 K, x1 = 0.5012): 258.84 ± 8.2 J/K/mol
- molar heat capacity at constant pressure (333.22 K, x1 = 0.5907): 261.57 ± 8.2 J/K/mol
- molar heat capacity at constant pressure (333.22 K, x1 = 0.7026): 260.21 ± 8.2 J/K/mol
- molar heat capacity at constant pressure (333.22 K, x1 = 0.7987): 257.48 ± 8.2 J/K/mol
- molar heat capacity at constant pressure (333.22 K, x1 = 0.9002): 260.21 ± 8.2 J/K/mol
- molar heat capacity at constant pressure (333.22 K, x1 = 1): 260.21 ± 8.2 J/K/mol
- molar heat capacity at constant pressure (338.19 K, x1 = 0.1002): 264.29 ± 8.2 J/K/mol
- molar heat capacity at constant pressure (338.19 K, x1 = 0.2041): 261.57 ± 8.2 J/K/mol
- molar heat capacity at constant pressure (338.19 K, x1 = 0.2997): 262.93 ± 8.2 J/K/mol
- molar heat capacity at constant pressure (338.19 K, x1 = 0.3922): 262.93 ± 8.2 J/K/mol
- molar heat capacity at constant pressure (338.19 K, x1 = 0.5012): 262.93 ± 8.2 J/K/mol
- molar heat capacity at constant pressure (338.19 K, x1 = 0.5907): 262.93 ± 8.2 J/K/mol
- molar heat capacity at constant pressure (338.19 K, x1 = 0.7026): 262.93 ± 8.2 J/K/mol
- molar heat capacity at constant pressure (338.19 K, x1 = 0.7987): 261.57 ± 8.2 J/K/mol
- molar heat capacity at constant pressure (338.19 K, x1 = 0.9002): 262.93 ± 8.2 J/K/mol
- molar heat capacity at constant pressure (338.19 K, x1 = 1): 264.29 ± 8.2 J/K/mol
- molar heat capacity at constant pressure (343.18 K, x1 = 0.1002): 267.02 ± 9.5 J/K/mol
- molar heat capacity at constant pressure (343.18 K, x1 = 0.2041): 265.66 ± 8.2 J/K/mol
- molar heat capacity at constant pressure (343.18 K, x1 = 0.2997): 267.02 ± 9.5 J/K/mol
- molar heat capacity at constant pressure (343.18 K, x1 = 0.3922): 265.66 ± 8.2 J/K/mol
- molar heat capacity at constant pressure (343.18 K, x1 = 0.5012): 265.66 ± 8.2 J/K/mol
- molar heat capacity at constant pressure (343.18 K, x1 = 0.5907): 267.02 ± 9.5 J/K/mol
- molar heat capacity at constant pressure (343.18 K, x1 = 0.7026): 264.29 ± 8.2 J/K/mol
- molar heat capacity at constant pressure (343.18 K, x1 = 0.7987): 264.29 ± 8.2 J/K/mol
- molar heat capacity at constant pressure (343.18 K, x1 = 0.9002): 265.66 ± 8.2 J/K/mol
- molar heat capacity at constant pressure (343.18 K, x1 = 1): 267.02 ± 9.5 J/K/mol
- molar heat capacity at constant pressure (348.15 K, x1 = 0.1002): 269.74 ± 9.5 J/K/mol
- molar heat capacity at constant pressure (348.15 K, x1 = 0.2041): 268.38 ± 9.5 J/K/mol
- molar heat capacity at constant pressure (348.15 K, x1 = 0.2997): 269.74 ± 9.5 J/K/mol
- molar heat capacity at constant pressure (348.15 K, x1 = 0.3922): 268.38 ± 9.5 J/K/mol
- molar heat capacity at constant pressure (348.15 K, x1 = 0.5012): 269.74 ± 9.5 J/K/mol
- molar heat capacity at constant pressure (348.15 K, x1 = 0.5907): 268.38 ± 9.5 J/K/mol
- molar heat capacity at constant pressure (348.15 K, x1 = 0.7026): 267.02 ± 9.5 J/K/mol
- molar heat capacity at constant pressure (348.15 K, x1 = 0.7987): 267.02 ± 9.5 J/K/mol
- molar heat capacity at constant pressure (348.15 K, x1 = 0.9002): 268.38 ± 9.5 J/K/mol
- molar heat capacity at constant pressure (348.15 K, x1 = 1): 269.74 ± 9.5 J/K/mol
- molar heat capacity at constant pressure (353.18 K, x1 = 0.1002): 273.83 ± 9.5 J/K/mol
- molar heat capacity at constant pressure (353.18 K, x1 = 0.2041): 272.47 ± 9.5 J/K/mol
- molar heat capacity at constant pressure (353.18 K, x1 = 0.2997): 272.47 ± 9.5 J/K/mol
- molar heat capacity at constant pressure (353.18 K, x1 = 0.3922): 271.11 ± 9.5 J/K/mol
- molar heat capacity at constant pressure (353.18 K, x1 = 0.5012): 272.47 ± 9.5 J/K/mol
- molar heat capacity at constant pressure (353.18 K, x1 = 0.5907): 272.47 ± 9.5 J/K/mol
- molar heat capacity at constant pressure (353.18 K, x1 = 0.7026): 269.74 ± 9.5 J/K/mol
- molar heat capacity at constant pressure (353.18 K, x1 = 0.7987): 269.74 ± 9.5 J/K/mol
- molar heat capacity at constant pressure (353.18 K, x1 = 0.9002): 269.74 ± 9.5 J/K/mol
- molar heat capacity at constant pressure (353.18 K, x1 = 1): 272.47 ± 9.5 J/K/mol
- molar heat capacity at constant pressure (358.15 K, x1 = 0.1002): 275.19 ± 9.5 J/K/mol
- molar heat capacity at constant pressure (358.15 K, x1 = 0.2041): 273.83 ± 9.5 J/K/mol
- molar heat capacity at constant pressure (358.15 K, x1 = 0.2997): 273.83 ± 9.5 J/K/mol
- molar heat capacity at constant pressure (358.15 K, x1 = 0.3922): 273.83 ± 9.5 J/K/mol
- molar heat capacity at constant pressure (358.15 K, x1 = 0.5012): 275.19 ± 9.5 J/K/mol
- molar heat capacity at constant pressure (358.15 K, x1 = 0.5907): 275.19 ± 9.5 J/K/mol
- molar heat capacity at constant pressure (358.15 K, x1 = 0.7026): 272.47 ± 9.5 J/K/mol
- molar heat capacity at constant pressure (358.15 K, x1 = 0.7987): 271.11 ± 9.5 J/K/mol
- molar heat capacity at constant pressure (358.15 K, x1 = 0.9002): 272.47 ± 9.5 J/K/mol
- molar heat capacity at constant pressure (358.15 K, x1 = 1): 275.19 ± 9.5 J/K/mol
- molar heat capacity at constant pressure (363.18 K, x1 = 0.1002): 277.92 ± 9.5 J/K/mol
- molar heat capacity at constant pressure (363.18 K, x1 = 0.2041): 276.56 ± 9.5 J/K/mol
- molar heat capacity at constant pressure (363.18 K, x1 = 0.2997): 276.56 ± 9.5 J/K/mol
- molar heat capacity at constant pressure (363.18 K, x1 = 0.3922): 276.56 ± 9.5 J/K/mol
- molar heat capacity at constant pressure (363.18 K, x1 = 0.5012): 277.92 ± 9.5 J/K/mol
- molar heat capacity at constant pressure (363.18 K, x1 = 0.5907): 277.92 ± 9.5 J/K/mol
- molar heat capacity at constant pressure (363.18 K, x1 = 0.7026): 273.83 ± 9.5 J/K/mol
- molar heat capacity at constant pressure (363.18 K, x1 = 0.7987): 275.19 ± 9.5 J/K/mol
- molar heat capacity at constant pressure (363.18 K, x1 = 0.9002): 275.19 ± 9.5 J/K/mol
- molar heat capacity at constant pressure (363.18 K, x1 = 1): 277.92 ± 9.5 J/K/mol
